# According to patent US8232275B2, “2,2-bis-(hydroxymethyl)cyclopropylidenemethyl-purines and -pyrimidines as antiviral agents” (Wayne State University, priority 2002, dated 2012):
# Marks after values point to notes of the source that are not given here.
# What was measured:
# [1] = system: HSV-1; experiment: HSV-1 ELISA in BSC-1 cells; type: cell-based, herpes simplex virus type 1 (HSV-1); settings: Human alphaherpesvirus 1
# Experimental: (§1) Cells and viruses. The routine growth and passage of KB cells was performed in monolayer cultures using minimal essential medium (MEM) with either Hanks salts [MEM(H)] or Earle salts [MEM(E)] supplemented with 10% calf serum. The sodium bicarbonate concentration was varied to meet the buffering capacity required. Cultures of diploid human foreskin fibroblasts (HFF) or MRC-5 cells were grown in medium consisting of MEM(E) with 10% fetal bovine serum. Cells were passaged at 1:2 to 1:10 dilutions according to conventional procedures by using 0.05% trypsin plus 0.02% EDTA in a HEPES buffered salt solution (HBS) (Shipman, C., Jr., Proc. Soc. Exp. Biol. 130:305-310 (1969)) as described previously. Turk, S. R., et al., Antimicrob. Agents Chemother. 31:544-550 (1987). HFF and MRC-5 cells were passaged only at 1:2 dilutions. CEM cells were maintained in suspension culture as detailed previously. Kucera, L. S., et al., AIDS Res. Human Retroviruses 9:307-314 (1993).
# (§2) Virological procedures. Stock HCMV was prepared by infecting HFF cells at a multiplicity of infection (m.o.i.) of <0.01 plaque-forming units (p.f.u.) per cell. Cell growth medium was changed every four days until cytopathology was evident in all cells (approximately 21 days). Supernatant fluids were retained as the virus stock. High titer HSV-1 stocks were prepared by infecting KB cells at an m.o.i. of <0.1 as detailed previously. Turk, S. R., et al., Antimicrob. Agents Chemother. 31:544-550 (1987). Virus titers were determined using monolayer cultures of HFF cells for HCMV and monolayer cultures of BSC-1 cells for HSV-1 as described earlier. Prichard, M. N. et al., J. Virol. Methods 28:101-106 (1990). Briefly, HFF or BSC-1 cells were planted as described above in 96-well cluster dishes and incubated overnight at 37° C. in a humidified 3% CO2-97% air atmosphere. The next day cultures were inoculated with HCMV or HSV-1 and serially diluted 1:3 across the remaining eleven columns of the 96-well plate. Cultures were incubated at 37° C. for 2 hr to permit virus adsorption and then virus inoculum was replaced with 0.2 mL of fresh medium. Cultures were incubated for seven days for HCMV, two or three days for HSV-1, medium was removed, and the cell sheets were stained with 0.1% crystal violet in 20% methanol. Plaques were enumerated under 20-fold magnification in wells having the dilution which gave 5 to 20 plaques per well. Virus titers were calculated according to the following formula: Titer (p.f.u./mL)=number of plaques×5×3^n; where n represents the nth dilution of the virus used to infect the well in which plaques were enumerated.
# Assays for Antiviral Activity. (b) HSV-1. An enzyme-linked immunosorbent assay (ELISA) was employed to detect HSV-1. 96-well cluster dishes were planted with BSC-1 cells at 10,000 cells per well, in a total volume of 200 μL per well of MEM(E) plus 10% calf serum. After overnight incubation at 37° C., drug and HSV-1 was added at the rate of 100 PFU/well. ELISA plates were blocked with 200 μL per well of 10% calf serum and 0.05% tween in HBS. After incubation for 30 minutes, the blocking agent was rinsed two times with HBS-T. A 1:400 dilution of AP conjugated rabbit anti-HSV-1 antibody in HBS-F was added. Plates were sealed with adhesive sheet, and incubated on rocker for one hour at 37° C. Plates were developed in the dark with […] per well of substrate solution containing p-nitrophenyl phosphate. Plates were read at 492 nm. Drug effects were calculated as a percentage of the reduction in virus in the presence of each drug concentration compared to the titer obtained in the absence of drug. Acyclovir was used as a positive control in all experiments.
# (§3) Data Analysis. Dose-response relationships were constructed by linearly regressing the percent inhibition of parameters derived in the preceding sections against log drug concentrations. Fifty-percent inhibitory (IC50) concentrations were calculated from the regression lines. […]
# [2] = system: KB cells; experiment: Cytotoxicity in KB cells, growth during two population doublings (crystal violet); type: cell-based
# Experimental: (§4) Cytotoxicity assays. Two different assays were used to explore cytotoxicity of selected compounds as we have detailed previously. (i) Cytotoxicity produced in stationary HFF cells was determined by microscopic inspection of cells used in plaque assays which were not affected by the virus. Turk, S. R., et al., Antimicrob. Agents Chemother. 31:544-550 (1987). (ii) The effect of compounds during two population doublings of KB cells was determined by crystal violet staining and spectrophotometric quantitation of dye eluted from stained cells. Prichard, M. N., et al., Antimicrob. Agents Chemother. 35:1060-1065 (1991). Data Analysis. Dose-response relationships were constructed by linearly regressing the percent inhibition of parameters derived in the preceding sections against log drug concentrations. Fifty-percent inhibitory (IC50) concentrations were calculated from the regression lines. Samples containing positive controls (acyclovir for HSV-1, ganciclovir for HCMV, and 2-acetylpyridine thiosemicarbazone for cytotoxicity) were used in all assays. Results from sets of assays were rejected if inhibition by the positive control deviated from its mean response by >±1.5 standard deviations.
# [3] = Cytotoxicity in stationary HFF cells, microscopic (visual) inspection; type: cell-based; settings: human, stationary HFF cells (uninfected cells of the plaque assays), read-out: IC50 (μM) HFF (visual)
# Experimental: as §4
# [4] = system: HCMV; experiment: HCMV plaque reduction assay in HFF cells; type: cell-based, human cytomegalovirus (HCMV); settings: Human betaherpesvirus 5, HFF host cells
# Experimental: as §1, §2
# Assays for Antiviral Activity. (a) HCMV. The effect of compounds on the replication of HCMV has been measured using a plaque reduction assay. HFF cells in 24-well cluster dishes were infected with approximately 100 p.f.u. of HCMV per cm^2 cell sheet using the procedures detailed above. Following virus adsorption, compounds dissolved in growth medium were added to duplicate wells in three to six selected concentrations. Following incubation at 37° C. for 7 to 10 days, cell sheets were fixed, stained with crystal violet and microscopic plaques enumerated as described above. Drug effects were calculated as a percentage of reduction in number of plaques in the presence of each drug concentration compared to the number observed in the absence of drug. Ganciclovir (DHPG) was used as a positive control in all experiments.
# as §3, with “lines. Samples containing positive controls (acyclovir for HSV-1, ganciclovir for HCMV, and 2-acetylpyridine thiosemicarbazone for cytotoxicity) were used in all assays.” for “lines.”
Compound,IC50 [1],melting point,"IC50 (μM) KB (growth) ([2]; cytotoxicity, KB cell growth)",CC50 [3],IC50 (μM) KB (growth) ([2]; human),IC50 [4]
"Nc1nc2c(ncn2COCCO)c(=O)[nH]1 [Acyclovir, reference compound]",0.15 µM,,>100 ^b μM,,,
"Nc1ncnc2c1ncn2/C=C1/CC1(CO)CO [Compound 1a, (Z)-9-{(2,2-Bis-(hydroxymethyl)cyclopropylidene)methyl}-adenine]",50 µM,,,> 100 µM,>100 µM,3.6 µM
"Nc1nc2c(ncn2/C=C2/CC2(CO)CO)c(=O)[nH]1 [Compound 1c, (Z)-9-{[2,2-Bis-(hydroxymethyl)cyclopropylidene]methyl}-guanine]",> 100 µM,,,> 100 µM,>100 µM,0.46 µM
"Nc1ccn(/C=C2/CC2(CO)CO)c(=O)n1 [Compound 1e, (Z)-1-{[2,2-Bis-(hydroxymethyl)cyclopropylidene]methyl}-cytosine]",> 100 µM,250 to 253 °C,,> 100 µM,>100 µM,32 µM
"Cc1cn(/C=C2/CC2(CO)CO)c(=O)[nH]c1=O [Compound 1f, (Z)-1-{[2,2-Bis-(hydroxymethyl)cyclopropylidene]methyl}-thymine]",10 µM,,,> 100 µM,>100 µM,> 100 µM
"COc1nc(N)nc2c1ncn2/C=C1/CC1(CO)CO [Compound 1g, (Z)-2-amino-6-methoxy-9-{[2,2-bis-(hydroxymethyl)cyclopropylidene]-methyl}purine]",> 100 µM,188 to 189 °C,,> 100 µM,>100 µM,3.5 µM
"Nc1nc(NC2CC2)c2ncn(/C=C3/CC3(CO)CO)c2n1 [Compound 1h, (Z)-2-Amino-6-cyclopropylamino-9-{[2,2-bis-(hydroxymethyl)-cyclopropylidene]methyl}purine]",,195 to 196 °C,,,,
"Nc1nc(N)c2ncn(/C=C3/CC3(CO)CO)c2n1 [Compound 1o, (Z)-2,6-Diamino-9-{[2,2-bis-(hydroxymethyl)cyclopropylidene]-methyl}-purine]",> 100 µM,249 to 250 °C,,> 100 µM,>100 µM,15 µM
"Nc1nc(O)c2ncn(COC(CO)CO)c2n1 [Ganciclovir, reference compound]",,,,> 100 µM,,4.1 µM

# Now from value to molecule, other results behind:
IC50 [1],melting point,Compound,"IC50 (μM) KB (growth) ([2]; cytotoxicity, KB cell growth)",CC50 [3],IC50 (μM) KB (growth) ([2]; human),IC50 [4]
39 µM,,"Nc1nc2c(ncn2/C=C2\CC2(CO)CO)c(=O)[nH]1 [Compound 2c, (E)-9-{[2,2-Bis-(hydroxymethyl)cyclopropylidene]methyl}-guanine]",,> 100 µM,>100 µM,> 100 µM
,249 to 251 °C,"Nc1ccn(/C=C2\CC2(CO)CO)c(=O)n1 [Compound 2e, (E)-1-{[2,2-bis-(hydroxymethyl)cyclopropylidene]methyl}cytosine]",,,,
,179 to 180 °C,"COc1nc(N)nc2c1ncn2/C=C1\CC1(CO)CO [Compound 2g, (E)-2-amino-6-methoxy-9-{[2,2-bis-(hydroxymethyl)cyclopropylidene]-methyl}purine]",,,,
,164 to 165 °C,"Nc1nc(NC2CC2)c2ncn(/C=C3\CC3(CO)CO)c2n1 [Compound 2h, (E)-2-Amino-6-cyclopropylamino-9-{[2,2-bis-(hydroxymethyl)-cyclopropylidene]methyl}purine]",,,,
,219 to 220 °C,"Nc1nc(N)c2ncn(/C=C3\CC3(CO)CO)c2n1 [Compound 2o, (E)-2,6-Diamino-9-{[2,2-bis-(hydroxymethyl)cyclopropylidene]-methyl}purine]",,,,
